# Laboratory results taken from patent US20190194179A1, “ANTIBIOTIC COMPOUNDS” (DISCUVA LTD., priority 2016, published 2019).
# System: Neisseria gonorrhoeae
# Assay: EC50 determination: plate-based broth growth assay (absorbance at 600 nm) of Neisseria gonorrhoeae
# Assay type: cell-based
# Conditions: absorbance 600 nm after 20 hours at 37° C./5% CO2, read-out: IC50 (Inhibitory concentration) against Neisseria gonorrhoeae
# Experimental: Actively growing Neisseria gonorrhoeae on GC agar (based on; Spence et. al. (2008): Curr. Protoc. Microbiol. 8:4A.1.1-4A.1.26) plates are harvested and transferred to GC broth (based on; Spence et al (2008): Curr. Protoc. Microbiol. 8:4A.1.1-4A.1.26) to generate a liquid stock. This culture is allowed to establish and grow to mid-log phase (at 37° C./5% CO2), finally this culture is diluted (˜10^5 cells/ml) to generate a seed inoculum to establish plate-based broth assays. EC50 values were determined by assaying growth (absorbance read at 600 nm, after 20 hours at 37° C./5% CO2) of Neisseria gonorrhoeae across a 10-point dilution series of the test compound. The EC50 value is determined from transformed data to identify the concentration of compound giving a 50% response relative to control samples (no compound).
row,Compound,IC50 [nM]
1,"Cc1nnc(Nc2nc3ccc(Cl)cc3o2)[nH]1 [Example 122, 6-Chloro-N-(5-methyl-4H-1,2,4-triazol-3-yl)benzo[d]oxazol-2-amine]",≤ 10000
2,"Cc1nnc(Nc2nc3cc(C(F)(F)F)c(Cl)cc3[nH]2)[nH]1 [Example 153, 6-Chloro-N-(5-methyl-4H-1,2,4-triazol-3-yl)-5-(trifluoromethyl)-1H-benzo[d]imidazol-2-amine]",≤ 10000
3,"FC(F)(F)c1ccc2oc(Nc3nncs3)nc2c1 [Example 14, N-(1,3,4-Thiadiazol-2-yl)-5-(trifluoromethyl)benzo[d]oxazol-2-amine]",≤ 1000
4,"CN(C)CCNC(=O)c1csc(Nc2nc3cc(Cl)ccc3o2)n1 [Example 97, 2-((5-Chlorobenzo[d]oxazol-2-yl)amino)-N-(2-(dimethylamino)ethyl)thiazole-4-carboxamide]",≤ 1000
5,"COc1cc2oc(Nc3nnco3)nc2cc1F [Example 206, 5-Fluoro-6-methoxy-N-(1,3,4-oxadiazol-2-yl)benzo[d]oxa-zol-2-amine]",≤ 1000
6,"Cc1sc(Nc2nc3cc(C(F)(F)F)ccc3o2)nc1C(=O)NC1CC1 [Example 25, N-Cyclopropyl-5-methyl-2-((5-(trifluoromethyl)benzo[d]oxazol-2-yl)amino)thiazole-4-carboxamide]",≤ 1000
7,"COCCOc1ccc2nc(Nc3nnco3)oc2c1 [Example 193, 6-(2-methoxyethoxy)-N-(1,3,4-oxadiazol-2-yl)benzo[d]oxazol-2-amine]",≤ 1000
8,"FC(F)(F)c1cc2oc(Nc3nc4cnccc4o3)nc2cn1 [Example 161, N-(Oxazolo[4,5-c]pyridin-2-yl)-6-(trifluoromethyl)oxazolo[4,5-c]pyridin-2-amine]",≤ 100000
9,"Clc1cc(Cl)c2nc(Nc3nnc(CN4CCCC4)[nH]3)oc2c1 [Example 129, 4,6-diChloro-N-(5-(pyrrolidin-1-ylmethyl)-4H-1,2,4-triazol-3-yl)benzo[d]oxazol-2-amine]",≤ 1000
10,"FC(F)(F)c1ccc2oc(Nc3nc4ccncc4o3)nc2c1 [Example 59, N-(5-(triFluoromethyl)benzo[d]oxazol-2-yl)oxazolo[5,4-c]pyridin-2-amine]",≤ 1000
11,"O=C(NC1CC1)c1cnc(Nc2nc3cc(C(F)(F)F)ccc3o2)s1 [Example 37, N-Cyclopropyl-2-((5-(trifluoromethyl)benzo[d]oxazol-2-yl)amino)thiazole-5-carboxamide]",≤ 10000
12,"CCNC(=O)c1csc(Nc2nc3cc(C(F)(F)F)ccc3o2)n1 [Example 3, N-Ethyl-2-((5-(trifluoromethyl)benzo[d]oxazol-2-yl)amino)thiazole-4-carboxamide]",≤ 1000
13,"O=C1CCCN1c1ccc2nc(Nc3nnco3)oc2c1 [Example 212, 1-(2-((1,3,4-oxadiazol-2-yl)amino)benz-o[d]oxazol-6-yl)pyrrolidin-2-one]",≤ 100000
14,"O=C(NC1CC1)c1csc(Nc2nc3cc(C(F)(F)F)ccc3o2)n1 [Example 1, N-Cyclopropyl-2-((5-(trifluoromethyl)benzo[d]oxazol-2-yl)amino)thiazole-4-carboxamide]",≤ 1000
15,"FC(F)(F)c1ccc2nc(Nc3ncc(N4CCCCC4)s3)oc2c1 [Example 28, N-(5-(Piperidin-1-yl)thiazol-2-yl)-6-(trifluoromethyl)benzo[d]oxazol-2-amine]",≤ 1000
16,"FC(F)(F)c1ccc2oc(Nc3nnc(CN4CCOCC4)o3)nc2c1 [Example 70, N-(5-(morpholinomethyl)-1,3,4-oxadiazol-2-yl)-5-(trifluoromethyl)benzo[d]oxazol-2-amine]",≤ 1000
17,"COc1cc2oc(Nc3nnco3)nc2cc1C [Example 208, 6-Methoxy-5-methyl-N-(1,3,4-oxadiazol-2-yl)benzo[d]oxa-zol-2-amine]",≤ 1000
18,"OCc1ccc2nc(Nc3nnco3)oc2c1 [Example 181, (2-((1,3,4-Oxadiazol-2-yl)amino)ben-zo[d]oxazol-6-yl)methanol]",≤ 10000
19,"Cc1cc(Nc2nc3ccc(Cl)cc3o2)no1 [Example 172, 6-Chloro-N-(5-methylisoxazol-3-yl)benzo[d]oxazol-2-amine]",≤ 1000
20,"Cc1cnc(Nc2nc3cc(C(F)(F)F)ccc3o2)o1 [Example 112, N-(5-Methyloxazol-2-yl)-5-(trifluoromethyl)benzo[d]oxazol-2-amine]",≤ 1000

# Continued, values first:
row,IC50 [nM],Compound
1,≤ 1000,"O=C(Nc1cccc(F)c1)c1csc(Nc2nc3cc(C(F)(F)F)ccc3o2)n1 [Example 9, N-(3-Fluorophenyl)-2-((5-(trifluoromethyl)benzo[d]oxazol-2-yl)amino)thiazole-4-carboxamide]"
2,≤ 1000,"N#Cc1nnc(Nc2nc3cc(F)ccc3o2)o1 [Example 219, 5-((5-Fluorobenzo[d]oxazol-2-yl)amino)-1,3,4-oxadiazole-2-carbonitrile]"
3,≤ 1000,"FC(F)(F)Oc1cc2nc(Nc3nnco3)oc2cc1Cl [Example 205, 6-Chloro-N-(1,3,4-oxadiazol-2-yl)-5-(trifluoro-methoxy)benzo [d]ox-azol-2-amine]"
4,≤ 100,"FC(F)(F)c1ccc2oc(Nc3nc4ccccc4o3)nc2c1 [Example 158, N-(Benzo[d]oxazol-2-yl)-5-(trifluoromethyl) benzo[d]oxazol-2-amine]"
5,≤ 1000,"Cc1csc(Nc2nc3cc(C(F)(F)F)ccc3o2)n1 [Example 7, N-(4-Methylthiazol-2-yl)-5-(trifluoromethyl)benzo[d]oxazol-2-amine]"
6,≤ 1000,"FC1CCN(Cc2nnc(Nc3nc4cc(C(F)(F)F)ccc4o3)o2)C1 (stereo not shown) [Example 79, N-(5-((3-Fluoropyrrolidin-1-yl)methyl)-1,3,4-oxadiazol-2-yl)-5-(trifluoromethyl)benzo[d]oxazol-2-amine]"
7,≤ 1000,"FC(F)(F)c1ccc2nc(Nc3nnco3)oc2c1 [Example 114, N-(1,3,4-Oxadiazol-2-yl)-6-(trifluoromethyl)benzo[d]oxazol-2-amine]"
8,≤ 1000,"COC1CCN(Cc2nnc(Nc3nc4cc(C(F)(F)F)ccc4o3)o2)C1 (stereo not shown) [Example 75, N-(5-((3-Methoxypyrrolidin-1-yl)methyl)-1,3,4-oxadiazol-2-yl)-5-(trifluoromethyl)benzo[d]oxazol-2-amine]"
9,≤ 1000,"FC(F)(F)c1ccc2oc(Nc3nccs3)nc2c1 [Example 6, N-(Thiazol-2-yl)-5-(trifluoromethyl)benzo[d]oxazol-2-amine]"
10,≤ 1000,"Fc1cc(Cl)cc2oc(Nc3nnco3)nc12 [Example 176, 6-Chloro-4-fluoro-N-(1,3,4-oxadiazol-2-yl)benzo[d]ox-azol-2-amine]"
11,≤ 100,"COC(=O)c1ccc2oc(Nc3nnc(C)o3)nc2c1 [Example 44, Methyl 2-((5-methyl-1,3,4-oxadiazol-2-yl)amino)benzo[d]oxazole-5-carboxylate]"
12,≤ 100,"O=C(NC1CC1)c1csc(Nc2nc3ccc(Cl)cc3o2)n1 [Example 20, 2-((6-Chlorobenzo[d]oxazol-2-yl)amino)-N-cyclopropylthiazole-4-carboxamide]"
13,≤ 100,"Cc1cc(Cl)cc2oc(Nc3nnco3)nc12 [Example 189, 6-Chloro-4-methyl-N-(1,3,4-oxadiazol-2-yl)benzo[d]ox-azol-2-amine]"
14,≤ 100,"Cc1cc2oc(Nc3nnco3)nc2cc1Cl [Example 187, 5-Chloro-6-methyl-N-(1,3,4-oxadiazol-2-yl)benzo[d]ox-azol-2-amine]"
